Data reported in PMC5566973 (Frontiers in Pharmacology, 2017).

Tests used:
[1] = system: ATP (adenosine triphosphate); test: in vitro; conditions: human, Caco-2, PappAB
Protocol: (§1) Caco-2, MDCK and MDCK-MRP2 cells were donated by Prof. Yan Xie and Yueming Ma from Shanghai University of Traditional Chinese Medicine. The cells were grown in culture dishes (Corning® Costar, Cambridge, MA, USA) using DMEM supplemented with 10% FBS, 1% NEAA and 1% penicillin-streptomycin solution. The cells were cultured in 5% CO2 and […] with 90% relative humidity at 37°C. The medium was replaced every other day during incubation. The cells were passaged every 3–4 days between 70 and 80% confluence at a 1:5 split ratio using 0.25% trypsin-EDTA. For the transport experiments, the cells from passages between 30 and 45 were seeded at 1 × 10^5 cells/cm^2 onto permeable polycarbonate inserts (0.45 μm pore size, seeding surface of 0.6 cm^2, Millipore, MA, USA) in 24-well plastic plates. The media in the culture plates were changed every other day for the first week after seeding and were replaced daily afterward. […] The cells were used for the transport experiments 21–28 (Caco-2) or 5–7 (MDCK and MDCK-MRP2) days after seeding, and only monolayers with a TEER-value above 420 Ω cm^2 were used during the studies.
(§2) The apical (AP) and basolateral (BL) sides are typical of polarized Caco-2, MDCK and MDCK-MRP2 epithelial cells. Before the experiments, the polarized cell monolayers were washed twice with warm HBSS solution and subsequently preincubated (37°C, 30 min). Afterward, HBSS solution on both sides of the cell monolayers was removed using a mini desktop vacuum pump. […] The final DMSO concentration in the HBSS or drug mixture was below 0.5%. The monolayers were incubated at 37°C, and 100 μL samples were taken at 30, 60, 90, and 120 min from the acceptor compartment and immediately replaced with the same volume of prewarmed fresh blank HBSS. TEER measurements for assessing the membrane integrity took place before and after the experiments.
(§3) The apparent permeability coefficients (Papp) and ER were calculated as Equations (2) and (3): […]
(§4) where dQ/dt is the steady-state flux, A is the membrane surface area, and C0 is the initial drug concentration in the donor compartment. PappBA is the Papp-value measured in BL to AP direction and PappAB is the Papp-value measured in AP to BL direction. It indicated the involvement of an active transport process when the ER-value is above 1.5 (Hubatsch et al., [2007]).

MDR1 [2] = test: in vitro; conditions: human, Caco-2, PappBA, Caco-2, 2 μM
Protocol: as §1, §2, §3, §4

Na+/K+-ATPase = test: in vitro; conditions: human
Protocol: as §1, §2, §3, §4

[3] = system: ATP (adenosine triphosphate); test: Bidirectional transport in MDCK cell monolayers with selective transporter inhibitors or substrates; assay type: in vitro ADME, canine; conditions: dog, with NaN3 10 mM, + NaN3 10 mM (ATP)
Protocol: as §1, §2, §3, §4

MDCK cell monolayers = test: as above; assay type: in vitro ADME, canine; conditions: 2 μM
Protocol: as §1, §2, §3, §4

MDR1 [4] = test: as above; assay type: in vitro ADME, canine; conditions: dog
Protocol: as §1, §2, §3, §4

MRP2 = test: as above; assay type: in vitro ADME, canine; conditions: dog
Protocol: as §1, §2, §3, §4

OATs = test: as above; assay type: in vitro ADME, canine; conditions: dog, with cimetidine 0.05 mM (50 μM), + Cimetidine 0.05 mM (OATs)
Protocol: as §1, §2, §3, §4

OCTs/OCTNs = test: as above; assay type: in vitro ADME, canine; conditions: dog, with TEA 5 mM, + TEA 5 mM (OCTs/OCTNs)
Protocol: as §1, §2, §3, §4

SGLT1 = test: as above; assay type: in vitro ADME, canine; conditions: dog, with phloridzin 0.5 mM, + Phloridzin 0.5 mM (SGLT1)
Protocol: as §1, §2, §3, §4

[5] = Control (no inhibitor or substrate)
[6] = with quinidine 0.1 mM (100 μM), + Quinidine 0.1 mM (MDR1)
[7] = with MK571 0.05 mM (50 μM), + MK571 0.05 mM (MRP2)

## COc1ccc2c(c1)[nH]c1c(C)nccc12 [Harmine]
[1]
  Papp A→B: 14.1 ± 0.39 ×10⁻⁶ cm/s
MDR1 [2]; + Quinidine 0.1 mM (MDR1)
  Papp B→A: 29 ± 3.96 ×10⁻⁶ cm/s
MDR1 [2]; + Verapamil 0.1 mM (MDR1)
  Papp B→A: 28.5 ± 3.77 ×10⁻⁶ cm/s
Na+/K+-ATPase; Caco-2, PappAB
  Papp A→B: 13.1 ± 0.93 ×10⁻⁶ cm/s
Na+/K+-ATPase; Caco-2, PappBA, Caco-2, 2 μM, + Sodium vanadate 0.05 mM (Na^+)
  Papp B→A: 26.2 ± 1.78 ×10⁻⁶ cm/s
[3]
  Papp A→B at 120 min, 2 μM: 4.02 ± 0.18 ×10⁻⁶ cm/s
  Papp B→A at 120 min, 2 μM: 5.94 ± 0.63 ×10⁻⁶ cm/s
MDCK cell monolayers; + Apigenin 0.025 mM (BCRP)
  Modulatory effect: −
  PappAB: 4.48 ± 0.24 1 × 10^−6 cm/s
MDCK cell monolayers; + Cimetidine 0.05 mM (OATs)
  Modulatory effect: −
  PappBA: 7.43 ± 0.62 1 × 10^−6 cm/s
MDCK cell monolayers; + ES 0.05 mM (OATPs)
  Modulatory effect: −
  PappAB: 4.59 ± 0.22 1 × 10^−6 cm/s
  PappBA: 7.17 ± 0.68 1 × 10^−6 cm/s
MDCK cell monolayers; + Gly-Sar 10 mM (PEPT1)
  Modulatory effect: −
  PappAB: 4.59 ± 0.12 1 × 10^−6 cm/s
  PappBA: 7.50 ± 0.34 1 × 10^−6 cm/s
MDCK cell monolayers; + Ko143 0.01 mM (BCRP)
  Modulatory effect: −
  PappAB: 4.50 ± 0.48 1 × 10^−6 cm/s
MDCK cell monolayers; + MK571 0.05 mM (MRP2)
  Modulatory effect: +
MDCK cell monolayers; + NaN3 10 mM (ATP)
  Modulatory effect: +
MDCK cell monolayers; + Phloretin 0.3 mM (MCTs)
  Modulatory effect: −
  PappAB: 4.51 ± 0.16 1 × 10^−6 cm/s
  PappBA: 7.47 ± 0.27 1 × 10^−6 cm/s
MDCK cell monolayers; + Phloridzin 0.5 mM (SGLT1)
  Modulatory effect: +
  PappAB: 3.89 ± 0.36^* 1 × 10^−6 cm/s
MDCK cell monolayers; + Probenecid 0.2 mM (MRP2)
  Modulatory effect: +
  PappBA: 7.24 ± 0.27 1 × 10^−6 cm/s
MDCK cell monolayers; + Quinidine 0.1 mM (MDR1)
  Modulatory effect: −
MDCK cell monolayers; + Sodium vanadate 0.05 mM (Na^+)
  Modulatory effect: +
MDCK cell monolayers; + TEA 5 mM (OCTs/OCTNs)
  Modulatory effect: +
MDCK cell monolayers; + Verapamil 0.1 mM (MDR1)
  Modulatory effect: −
  PappAB: 4.59 ± 1.34 1 × 10^−6 cm/s
MDCK cell monolayers; [5]
  PappAB: 4.60 ± 0.25 1 × 10^−6 cm/s
  PappBA: 7.32 ± 0.19 1 × 10^−6 cm/s
MDR1 [4]; [6]
  Papp A→B at 120 min, 2 μM: 4.43 ± 0.32 ×10⁻⁶ cm/s
  Papp B→A at 120 min, 2 μM: 7.39 ± 0.32 ×10⁻⁶ cm/s
MDR1 [4]; with verapamil 0.1 mM (100 μM), + Verapamil 0.1 mM (MDR1)
  Papp B→A at 120 min, 2 μM: 7.67 ± 0.21 ×10⁻⁶ cm/s
MRP2; [7]
  Papp A→B at 120 min, 2 μM: 5.14 ± 0.1 ×10⁻⁶ cm/s
  Papp B→A at 120 min, 2 μM: 6.67 ± 0.37 ×10⁻⁶ cm/s
MRP2; with probenecid 0.2 mM (200 μM), + Probenecid 0.2 mM (MRP2)
  Papp A→B at 120 min, 2 μM: 5.21 ± 0.26 ×10⁻⁶ cm/s
OATs
  Papp A→B at 120 min, 2 μM: 4.74 ± 0.13 ×10⁻⁶ cm/s
OCTs/OCTNs
  Papp A→B at 120 min, 2 μM: 4.15 ± 0.1 ×10⁻⁶ cm/s
  Papp B→A at 120 min, 2 μM: 6.96 ± 0.24 ×10⁻⁶ cm/s
SGLT1
  Papp B→A at 120 min, 2 μM: 6.27 ± 0.78 ×10⁻⁶ cm/s
